Data on two substances can be found in patent US12319721B2 (Purdue Research Foundation, priority 2018, dated 2025).

Experiment [1] has as its system healed fractured femur. The experiment in a line: Femur fracture model, postmortem four-point bend of the healed femur. Type of experiment: in vivo, Swiss Webster mice. The note with it: 16 days, 0.1, 1 and 10 nmol daily subcutaneous, n=5.
The test system of experiment [2] is healed fractured femur. The experiment in a line: Femur fracture model, postmortem four-point bend of the healed femur, CD-1 mice. Type of experiment: in vivo, CD-1 male mice. The note with it: 4 weeks, 50 nmol daily subcutaneous (50×), n=10. As to the method:
(§1) The targeted conjugates were synthesized using standard Fmoc solid-phase peptide synthesis, as described above. To ensure the conjugates' activity, mouse pre osteo-blast (MCTC3-1) cells were treated with the targeted and untargeted compounds for three days at concentrations from 1 pM to 100 nM. After three days of treatment, the cells were harvested, and the ribonucleic acid (RNA) was purified from the cells. Expression levels of ALP, RUNx2, OSX, osteo-pontin (OPN), collagen 1A (Col-1A), OPG, RANKL, scle-rostin gene (SOST), and OC were quantified via quantitative reverse transcription polymerase chain reaction (RT-qPCR). Once the biological activity of the conjugates was confirmed, they were tested in vivo in a fracture model. Aseptic surgical techniques were used to place a 23-gage needle as in intramedullary nail in the femur of anesthetized, 12-week-old Swiss Webster mice for internal fixation before fracture. Femur fractures were induced using a drop weight fracture device from RISystem. The mice received buprenorphine for three days post fracture. The mice were dosed subcutaneously each day for two weeks, three weeks, 4 weeks, or 17 days. Fracture healing was assessed using microCT (Scanco Medical Ag). Morphometric parameters were quantified in the 100 widest slices of the fracture callus. Trabecular thickness (TbTh), trabecular spacing (TbSp), total volume (TV), and volume of calcified callus (BV) were calculated. Fractured femurs were tested for strength in a four-point bend to failure using an Electro Force TestBench (TA Instruments). Lower supports were 10 mm apart on the anterior face of the femur in contact with the proximal and distal diaphysis. Upper supports were 4 mm apart and spanned the entire fracture callus on the diaphysis. Force was applied from the posterior face of the femur with a displacement rate of 0.3 mm/sec. Peak load, yield load, stiffness, displacement post yield, work to fracture, and deformation data were generated. […]

In experiment [3] the test system is fracture callus of fractured femur. Briefly: Femur fracture model, microCT of the fracture callus, CD-1 mice. It counts as in vivo, CD-1 male mice. The note with it: 4 weeks, 50 nmol daily subcutaneous (50×), n=10. The protocol:
as §1, with “The mice were dosed subcutaneously each day for two weeks, three weeks, 4 weeks, or 17 days.” left out, “calculated.” for “calculated. Fractured femurs were tested for strength in a four-point bend to failure using an Electro Force TestBench (TA Instruments). Lower supports were 10 mm apart on the anterior face of the femur in contact with the proximal and distal diaphysis. Upper supports were 4 mm apart and spanned the entire fracture callus on the diaphysis. Force was applied from the posterior face of the femur with a displacement rate of 0.3 mm/sec. Peak load, yield load, stiffness, displacement post yield, work to fracture, and deformation data were generated.”

Where no end group is shown, it is not given here. mp4 = 4 mini PEG linker

As for “Annexin_mp4_(D)E10: Annexin 1 N-terminal fragment with 10 glutamic acids, SEQ ID NO: 26, FIG. 81 (Ac-AMVSEFLKQAWFIENEEQEYVQTVY-{mini PEG-mini PEG-mini PEG-mini PEG-dE-dE-dE-dE-dE-dE-dE-dE-dE-dE})”, in the experiment on healed fractured femur [1], the “Max load (bone strength)” value was “raises bone strength” and the “Work to fracture (bone strength)” value is on record as “raises bone strength”.
On to “Preptin(1-34)_mp4_(D)E10: Preptin (1-34) with mp4 linker and 10 glutamic acids, SEQ ID NO: 24, FIG. 70 ({dE-dE-dE-dE-dE-dE-dE-dE-dE-dE-mp4}-VRGASQRWTDYQFFGVPYRPFDPLVAQSTSVD)”, for which, in the experiment on healed fractured femur [2], the “Max load (bone strength)” value is on record as “significantly raises bone strength”, the “Post yield displacement (bone brittleness)” value is recorded as “significantly reduces the bone brittleness” and the “Work to fracture (bone strength)” value was “significantly raises bone strength”. For the same substance, in experiment [3], the “BV (bone volume, bone mineralization)” value is “significantly raises bone mineralization” and the “BV/TV (bone density)” value is on record as “significantly raises bone density”.
